Results on four compounds are retold here after patent US20230295215A1, “NOVEL MRNA 5'-END CAP ANALOGS MODIFIED WITHIN PHOSPHATE RESIDUES, RNA MOLECULE INCORPORATING THE SAME, USES THEREOF AND METHOD OF SYNTHESIZING RNA MOLECULE OR PEPTIDE” (Uniwersytet Warszawski, priority 2020, published 2023).

For one assay, the system named is 3T3-L1 and JAWS II cells. Briefly: Gaussia luciferase protein expression from capped mRNA transfected into mammalian cells. It counts as cell-based, murine. As to conditions: mRNAs modified with the two trinucleotide cap analogs compared with each other. On the procedure: Transcripts incorporating at the 5′ end compounds according to the invention or benchmark (reference) compounds were obtained using in vitro transcription method in the presence of RNA polymerase T7 and DNA template containing the […] promoter sequence for this polymerase. In order to analyze the capping efficiency, short RNA transcripts were obtained as described in Example 9. The transcription yielding RNAs of 35 nt in length was carried out in the presence of selected compounds according to the invention or reference compounds representing state of the art and containing the same modifications of phosphate groups as the analyzed compounds according to the invention. The resulting RNAs were treated with DNAzyme 10-23 in order to shorten them and reduce 3′ end heterogeneity and analyzed in 15% polyacrylamide gel, which enabled separation of capped and uncapped RNAs. In order to analyze protein expression yield in mammalian cells, mRNAs carrying compounds according to the invention or reference compounds and encoding Gaussia luciferase as a reporter gene were obtained. […] The obtained mRNAs were introduced into mammalian cell lines (fibroblasts—3T3-L1 and dendritic cells—JAWS II) using transfection with lipofectamine, followed by measuring Gaussia luciferase expression in the extracellular medium at appropriate time intervals by the luminescence method as described in Example 13. […]

For assay [1] the following is noted: cited from earlier work; for translation efficiency: relative to the compound without modification.

With m^7GppCH2pAmpG, the translational properties entry with 3T3-L1 and JAWS II cells was “very similar translational properties”.

Take `COC1C(O)C(COP(=O)(O)OP(=O)(S)OP(=O)(O)OCC2OC(n3cnc4c(=O)[nH]c(N)nc43)C(O)C2O)OC1n1c[n+](C)c2c(=O)[nH]c(N)nc21` (centres unmarked) [m2^7,2′-OGppspG D2]: the translation efficiency entry in assay [1] is recorded as “increases”.

Take m2^7,3′-OGppCH2pG: in assay [1] (compared to mRNA obtained with m2^7,3′-OGpppG (no O by CH2 substitution)), the protein expression result is listed as “significant reduction in protein expression”. In addition, the translation efficiency result in assay [1] is “decreases”.

As for `CO[C@@H]1[C@H](O)[C@@H](COP(=O)(O)OP(=O)([S-])OP(=O)(O)OC[C@H]2O[C@@H](n3cnc4c(=O)[nH]c(N)nc43)[C@H](O)[C@@H]2O)O[C@H]1n1c[n+](C)c2c(O)nc(N)nc21` (stereo partly drawn) [β-S-ARCA], the “translation efficiency of mRNA” value in assay [1] (in vitro and in vivo) was “significant increase in translation efficiency”.
